From patent publication US10413581B2, “Combination, composition, and method of administering the combination or composition to animals” (Phibro Animal Health Corporation, priority 2014, dated 2019)

Experiments:
Type in all cases: in vivo
[1] = system: E. meleagrimitis; assay: Example 10: oocysts per gram fecal material, E. meleagrimitis; conditions: Composition 250 ppm, Monensin 68 ppm, alone or combined
Description: (§1) In this examples the effect of a composition comprising Quillaja saponaria and Yucca schidigera in combination with Monensin was determined. In some embodiments, the composition was a commercial product sold under the trade name MAGNI-PHI by Phibro Animal Health Corporation. Four treatment regimens were used: a control with no medication; 250 ppm of the composition; 68 ppm Monensin; and 250 ppm composition in combination with 68 ppm Monensin.
(§2) On Days 14, 21, and 28 fresh fecal samples were collected from each pen. These representative samples were tested to determine the degree of coccidia oocysts per gram of litter, by determining oocysts shedding/cycling. Oocysts per gram were determined for each sample.

[2] = system: E. gallopavonis; assay: Example 10: oocysts per gram fecal material, E. gallopavonis; conditions: Composition 250 ppm, Monensin 68 ppm, alone or combined
Description: as §1, §2

[3] = system: E. adenoeides; assay: Example 10: oocysts per gram fecal material, E. adenoeides; conditions: Composition 250 ppm, Monensin 68 ppm, alone or combined
Description: as §1, §2

[4] = system: coccidia; assay: Example 10: composition in combination with Monensin: performance, total coccidia oocysts per gram; conditions: Composition 250 ppm, Monensin 68 ppm, alone or combined; for Adj. FCR / Feed Intake / Wt. Gain: D 0-42
Description: as §1, §2

CC[C@@]1([C@@H]2O[C@@H]([C@H]3O[C@@](O)(CO)[C@H](C)C[C@@H]3C)C[C@@H]2C)CC[C@H]([C@]2(C)CC[C@]3(C[C@H](O)[C@@H](C)[C@@H]([C@@H](C)[C@@H](OC)[C@H](C)C(=O)O)O3)O2)O1 [Monensin]
Oocysts per gram fecal material E. mel. ([1]; D 14): 786b oocysts per gram | Oocysts per gram fecal material E. mel. ([1]; D 21): 2549c oocysts per gram | Oocysts per gram fecal material E. mel. ([1]; D 28): 74b oocysts per gram | Oocysts per gram fecal material E. gallo. ([2]; D 14): 430ab oocysts per gram | Oocysts per gram fecal material E. gallo. ([2]; D 21): 623a oocysts per gram | Oocysts per gram fecal material E. gallo. ([2]; D 28): 119a oocysts per gram | Oocysts per gram fecal material E. aden. ([3]; D 14): 356ab oocysts per gram | Oocysts per gram fecal material E. aden. ([3]; D 21): 237bc oocysts per gram | Oocysts per gram fecal material E. aden. ([3]; D 28): 29b oocysts per gram | Oocysts per gram fecal material Total ([4]; D 14): 1571bc oocysts per gram | Oocysts per gram fecal material Total ([4]; D 21): 3409c oocysts per gram | Oocysts per gram fecal material Total ([4]; D 28): 252b oocysts per gram | Adj. FCR ([4]; Day 14): 1.473b | Feed Intake ([4]; Day 14): 20.04b | Wt. Gain ([4]; Day 14): 0.261a kg | Adj. FCR ([4]; Day 28): 1.562b | Feed Intake ([4]; Day 28): 51.81a | Wt. Gain ([4]; Day 28): 0.703a kg | Adj. FCR ([4]; Day 42): 1.707b | Feed Intake ([4]; Day 42): 124.77b | Wt. Gain ([4]; Day 42): 1.614bc kg
